Source: publication PMC9502528, “Stability Study of Alpinia galanga Constituents and Investigation of Their Membrane Permeability by ChemGPS-NP and the Parallel Artificial Membrane Permeability Assay” (Pharmaceutics, 2022)
Read-outs that look alike come from different tables or passages of the source.

Assays:
[1] = PAMPA-BBB (parallel artificial membrane permeability assay, porcine polar brain lipid extract); assay type: in vitro ADME
Method: The test solutions were prepared with DMSO at the concentration of 10.0 mM. These were diluted with PBS buffer pH = 7.4 (PAMPA-BBB) or pH = 6.8 (PAMPA-GI) to obtain the donor solutions (297.0 μL buffer + 3.0 μL DMSO solution) and filtered through Phenex-RC 15 mm, 0.2 μm syringe filters (Gen-Lab Ltd., Budapest, Hungary). A parallel artificial membrane permeability assay (PAMPA) system was used to determine the effective permeability (Pe) for the compounds of interest. Each well of the top plate (96-well polycarbonate-based filter donor plates (Multiscreen™-IP, MAIPN4510, pore size 0.45 μm; Millipore)) was coated with 5 μL of porcine polar brain lipid extract (PBLE) solution (8.0 mg PBLE + 4.0 mg cholesterol dissolved in 300.0 μL n-dodecane) for PAMPA-BBB; or with 5 μL of mixture of 8.0 mg phosphatidylcholine + 4.0 mg cholesterol dissolved in 300.0 μL n-dodecane for PAMPA-GI. Then, 150.0 μL of the filtrate was placed on the membrane. The bottom plate (96-well PTFE acceptor plates (Multiscreen Acceptor Plate, MSSACCEPTOR; Millipore)), was filled with 300.0 μL buffer solution (0.01 M PBS buffer, pH = 7.4). The donor and acceptor plates were fit, and then the sandwich system was incubated at 37 °C for 4 h in a Stat-Fax 2200 (Awareness Technology, Palm City, FL, USA). After the incubation, the PAMPA plates were separated and the compound concentrations in the donor (CD(t)) and acceptor (CA(t)) solutions, as well as in the donor solution at zero time point (CD(0)), were determined by UPLC-DAD. […] At iso-pH conditions (PAMPA-BBB), the effective permeability and the membrane retention of drugs were calculated by the following equation [21]:(1) Pe =−2.303/A(t−τSS)·(VA·VD/VA+VD)·lg[1−(VA+VD/(1−MR)·VD)×(CA(t)/CD(0))], where Pe is the effective permeability coefficient (cm/s), A is the filter area (0.24 cm^2), VD and VA are the volumes in the donor (0.15 cm^3) and acceptor phases (0.30 cm^3), t is the incubation time (s), τSS is the time (s) to reach steady-state (240 s), CD(t) is the concentration (mol/cm^3) of the compound in the donor phase at time t, CD(0) is the concentration (mol/cm^3) of the compound in the donor phase at time 0, and MR is the estimated membrane retention factor (the estimated mole fraction of solute lost to the membrane):(2) MR=1−CD(t)/CD(0)−VA/VDCA(t)/CD(0)
All experiments were performed in three triplicates on three consecutive days (n = 9).

[2] = system: nitric oxide (NO) production in mouse peritoneal macrophages; design: method as in PMID 15930771; details: cited from earlier work
[3] = Stability analyses in PBS (pH 7.4) at 37 °C for 4 h, UPLC-DAD; assay type: physicochemical; details: for percentage difference between the initial and final concentrations: PBS pH 7.4, 37 °C, 4 h, 100 μM; for stability in aqueous media: aqueous media (PBS)
Method: The isolation of 8 compounds (compounds 1, 2, […], 5, 6, 7, 9, and 10) was carried out using flash chromatography and semi-preparative HPLC; the corresponding data is presented in the Supplementary Materials. For stability analyses, the stock solutions were prepared from the ethyl acetate extract (200 mg/mL) and from compounds 1, 2, 4, 5, 6, 7, 9, and 10 dissolved in dimethyl sulfoxide (DMSO) at the concentration of 10.0 mM. These were diluted 100-fold with PBS (Phosphate Buffer Saline; pH = 7.4). The samples were filtered through Phenex-RC 15 mm, 0.2 μm syringe filters (Gen-Lab Ltd., Budapest, Hungary). The solutions were incubated at 37 °C for 4 h; the decomposition was determined by UPLC-DAD. All experiments were performed in triplicates, on three consecutive days ([…]).
The eight isolated compounds (p-OH-benzaldehyde (1), trans-p-coumaryl-alcohol (2), p-coumaryl-aldehyde (4), galanganol A (5), galanganol B (6), trans-p-acetoxycinnamyl alcohol (7), 1′S-1′-acetoxychavicol acetate (9), and 1′S-1′-acetoxyeugenol acetate (10)) were identified by UHPLC-high-resolution Orbitrap® mass spectrometry (HR-MS) and by NMR spectroscopy; the corresponding data is presented in the Supplementary Materials, while Figure 3 depicts the structures of the isolated compounds. In order to answer the questions raised about the possible conversion and decomposition of the A. galanga constituents during the PAMPA-BBB experiment, investigation of the chemical stability of the isolated compounds was carried out in PBS medium (pH 7.4) at 37 °C for 4 h. For the analysis of the samples acquired in the stability experiments, the aforementioned UHPLC-DAD method that had previously been validated for linearity, precision, and accuracy was utilized (Tables S1 and S2).

[4] = PAMPA-GI of the A. galanga ethyl acetate extract; assay type: in vitro ADME; details: donor PBS pH 6.8, 37 °C, 4 h, UHPLC-DAD
Method: The test solutions were prepared with DMSO at the concentration of 10.0 mM. These were diluted with PBS buffer pH = 7.4 (PAMPA-BBB) or pH = 6.8 (PAMPA-GI) to obtain the donor solutions (297.0 μL buffer + 3.0 μL DMSO solution) and filtered through Phenex-RC 15 mm, 0.2 μm syringe filters (Gen-Lab Ltd., Budapest, Hungary). A parallel artificial membrane permeability assay (PAMPA) system was used to determine the effective permeability (Pe) for the compounds of interest. Each well of the top plate (96-well polycarbonate-based filter donor plates (Multiscreen™-IP, MAIPN4510, pore size 0.45 μm; Millipore)) was coated with 5 μL of porcine polar brain lipid extract (PBLE) solution (8.0 mg PBLE + 4.0 mg cholesterol dissolved in 300.0 μL n-dodecane) for PAMPA-BBB; or with 5 μL of mixture of 8.0 mg phosphatidylcholine + 4.0 mg cholesterol dissolved in 300.0 μL n-dodecane for PAMPA-GI. Then, 150.0 μL of the filtrate was placed on the membrane. The bottom plate (96-well PTFE acceptor plates (Multiscreen Acceptor Plate, MSSACCEPTOR; Millipore)), was filled with 300.0 μL buffer solution (0.01 M PBS buffer, pH = 7.4). […] After the incubation, the PAMPA plates were separated and the compound concentrations in the donor (CD(t)) and acceptor (CA(t)) solutions, as well as in the donor solution at zero time point (CD(0)), were determined by UPLC-DAD. […]

[5] = design: method as in PMID 10564034; details: 5% ethanol-containing aqueous solution at 60 °C; cited from earlier work
[6] = pig, PAMPA, pH 7.4, Table S4 sheet Galangal compounds, PAMPA-BBB, read-out: logPe (converted)
[7] = PAMPA-BBB, pH 7.4, 37 °C, 4 h, Pe in cm/s, n = 9

Row | Compound | Papp at 4 h, 100 µM [1, 6] [nm/s] | PAMPA-BBB (blood–brain barrier permeability) ([1]; cutoff log Pe −6.0) | nitric oxide (NO) production inhibitory activity [2] | percentage difference between the initial and final concentrations [3] [%] | stability in aqueous media [3] | further results
1 | OC/C=C\c1ccc(O)cc1 [Compound 3a, cis-p-coumaryl-alcohol] | 13.8 |  |  |  |  | 
2 | OC/C=C/c1ccc(O)cc1 [Compound 2, trans-p-coumaryl-alcohol] | 13.8 | + | showed nitric oxide (NO) production inhibitory activities |  |  | log Pe [1, 7]: −5.86 ± 0.23
3 | C=C[C@H](OC(C)=O)c1ccc(OC(C)=O)c(OC)c1 [Compound 10, 1′S-1′-acetoxyeugenol acetate] | 501 |  | showed nitric oxide (NO) production inhibitory activities | 14.32 | unstable | 
4 | CC(=O)Oc1ccc(/C=C\CO)cc1 [Compound 8a, cis-p-acetoxycinnamyl alcohol] | 316 |  |  |  |  | 
5 | OC[C@H](C/C=C/c1ccc(O)cc1)[C@H](O)c1ccc(O)cc1 [Compound 6, galanganol B] | 7.76 | − | showed nitric oxide (NO) production inhibitory activities |  |  | Papp at 4 h, 100 µM ([1]; pig, PAMPA, pH 7.4, PAMPA-BBB, pH 7.4, 37 °C, 4 h, Pe in cm/s, n = 9, read-out: log Pe (converted)): 7.24 nm/s; detection in the acceptor solution (PAMPA-GI) [4]: except for compounds 5 and 6
6 | OC[C@@H](C/C=C/c1ccc(O)cc1)[C@H](O)c1ccc(O)cc1 [Compound 5, galanganol A] | 7.76 | − |  |  |  | detection in the acceptor solution (PAMPA-GI) [4]: except for compounds 5 and 6
7 | C=C[C@H](OC(C)=O)c1ccc(OC(C)=O)cc1 [Compound 9, 1′S-1′-acetoxychavicol acetate] | 398 |  | showed nitric oxide (NO) production inhibitory activities | 57.78 | unstable | stability in aqueous ethanol [5]: instability
8 | O=Cc1ccc(O)cc1 [Compound 1, p-OH-benzaldehyde] | 27.5 | + |  |  |  | log Pe [1, 7]: −5.56 ± 0.07
9 | CC(=O)Oc1ccc(/C=C/CO)cc1 [Compound 7, trans-p-acetoxycinnamyl alcohol] | 316 |  |  | 8.04 | unstable | 
10 | O=C/C=C/c1ccc(O)cc1 [Compound 4, p-coumaryl-aldehyde] |  |  | showed nitric oxide (NO) production inhibitory activities |  |  | PAMPA-BBB (blood–brain barrier permeability) ([1]; PAMPA): +; log Pe ([1]; pig, PAMPA, 4 h, 100 µM, pH 7.4): −5.25 ± 0.27; Papp at 4 h, 100 µM ([1]; pig, PAMPA, pH 7.4, logPe): 56.2 nm/s
